Laboratory results as given in patent US11331289B2, “Antimicrobial composition” (priority 2017, dated 2022).
Like-named read-outs stand apart in the source and are kept apart here.

What was measured:
[1] = system: Methicillin-Resistant Staphylococcus aureus (MRSA) 16116, 16110; assay: Oxyclo MIC of MRSA strains; type: cell-based
MRSA 16116 = assay: Time-killing curve, inoculum 5.10^5 CFU/ml (MIC 0.5 μg/ml); type: cell-based, Staphylococcus aureus
Procedure: (§1) The objective of this study is to assess in vitro the time-killing curves of oxyclozanide against four strains of Methicillin-Resistant Staphylococcus from dogs.
(§2) Two Methicillin-Resistant Staphylococcus aureus (MRSA) and two Methicillin-Resistant Staphylococcus pseudintermedius (MRSP) isolated from the clinics have been tested.
(§3) The assessment of time-killing curves has been realized by a broth macrodilution method (Mueller-Hinton II Broth).
(§4) Oxyclozanide is diluted in (DMSO) into sterile tubes in order to obtain the following concentrations from 800 to 6.25 μg/ml. Those concentrations and stock standard solution are then diluted (1/10) in Mueller-Hinton II Broth in order to obtain the following concentrations from […] (See Table 2).
(§5) Each operation is performed under sterile conditions. Each working standard solution (10*the final active ingredient concentration) is distributed in tubes (1 ml, for a final volume of 10 ml after addition of 9 ml of inoculum). One tube without active ingredient is used as growth control (Concentration=0).
(§6) Bacterial isolates are sub-cultured from one cryobead on Columbia agar supplemented with 5% of blood. Pure cultures are incubated during 18-24 hours at 37° C. Three to five isolated colonies of similar appearance are selected from a previous culture and transferred into tubes containing 9 ml of Mueller-Hinton II Broth. The broth is incubated during 12-18 hours at 37° C. 0.5 to 1 ml of this broth is inoculated to another Mueller-Hinton II Broth 9 ml tube which is incubated during 3 to 4 hours at 37° C. to reach the exponential growth phase. The bacterial inoculum grown exponential phase is suspended to an optical density of McFarland standard scale 0.5 equivalent to a bacterial density of 10^8 CFU/ml and then adjusted to a concentration of about 5.10^5 CFU/ml as indicated by the guideline CLSI M26-A and to a second inoculum tested: 10^6 CFU/ml.
(§7) 9 ml of bacterial inoculum grown to exponential phase is added to 1 ml of active ingredient (or Mueller Hinton II Broth for the growth control). Tubes are incubated at 35° C. during 24 hours.
(§8) At times 0, 2, 4, 6 and 24 hours, 100 μl of broth of each tube is sampled and diluted in microplates:
(§9) Each well is re-cultured by streaking 10 μl on Columbia agar supplemented with 5% of blood. Plates are incubated at 37° C. during 18-24 hours incubation. Thus, residual bacterial concentrations are determined (CFU/ml). Results are expressed in log10 values of CFU/ml over-time in broth. Due to the procedure used, the minimal bacterial concentration that can be assessed is 10^2 CFU/ml.

[2] = system: Staphylococcus pseudintermedius no 15401 and no 15410; assay: MIC of Oxyclozanide, broth microdilution method; type: cell-based
Procedure: (§10) In this study, 2 Staphylococcus aureus and 2 Staphylococcus pseudintermedius were tested. These strains were chosen after determination of the Minimum Inhibitory Concentration (MIC) of Oxyclozanide using broth microdilution method.

[3] = system: Staphylococcus aureus no 16302 and no 16315; assay: MIC of Oxyclozanide, broth microdilution method; type: cell-based
Procedure: as §10

MRSP 16127 = assay: Time-killing curve, inoculum 10^6 CFU/ml (MIC 0.25 μg/ml); type: cell-based, Staphylococcus pseudintermedius
Procedure: as §1, §2, §3, §4, §5, §6, §7, §8, §9

- MIC ([1]; MRSA 16110): 1 µg/mL
- MIC ([1]; MRSA 16116): 0.5 µg/mL
- MIC ([2]; Staphylococcus pseudintermedius, no 15401, read-out: MIC): 0.125 µg/mL
- MIC ([2]; no 15410): 0.125 µg/mL
- MIC ([3]; Staphylococcus aureus, no 16302, read-out: MIC): 0.5 µg/mL
- MIC ([3]; no 16315): 0.5 µg/mL
Compound: O=C(Nc1cc(Cl)cc(Cl)c1O)c1c(O)c(Cl)cc(Cl)c1Cl [Oxyclozanide]
- Counting results (MRSA 16116; 1 MIC, 0 h): 3.900E+05 CFU/ml
- Counting results (MRSA 16116; 1 MIC, 2 h): 1.700E+06 CFU/ml
- Counting results (MRSA 16116; 1 MIC, 4 h): 2.500E+07 CFU/ml
- Counting results (MRSA 16116; 1 MIC, 6 h): 1.600E+08 CFU/ml
- Counting results (MRSA 16116; 1 MIC, 24 h): 1.300E+08 CFU/ml
- Counting results (MRSA 16116; 2 MIC, 0 h): 3.900E+05 CFU/ml
- Counting results (MRSA 16116; 2 MIC, 2 h): 1.200E+05 CFU/ml
- Counting results (MRSA 16116; 2 MIC, 4 h): 1.300E+04 CFU/ml
- Counting results (MRSA 16116; 2 MIC, 6 h): 1.400E+04 CFU/ml
- Counting results (MRSA 16116; 2 MIC, 24 h): 3.500E+06 CFU/ml
- Counting results (MRSA 16116; 4 MIC, 0 h): 3.900E+05 CFU/ml
- Counting results (MRSA 16116; 4 MIC, 2 h): 6.000E+03 CFU/ml
- Counting results (MRSA 16116; 4 MIC, 4 h): 6.000E+02 CFU/ml
- Counting results (MRSA 16116; 4 MIC, 6 h): 4.000E+02 CFU/ml
- Counting results (MRSA 16116; 4 MIC, 24 h): 1.000E+02 CFU/ml
- Counting results (MRSA 16116; 8 MIC, 0 h): 3.900E+05 CFU/ml
- Counting results (MRSA 16116; 8 MIC, 2 h): 5.000E+02 CFU/ml
- Counting results (MRSA 16116; 8 MIC, 4 h): 1.000E+02 CFU/ml
- Counting results (MRSA 16116; 8 MIC, 6 h): 1.000E+02 CFU/ml
- Counting results (MRSA 16116; 8 MIC, 24 h): 1.000E+02 CFU/ml
- Counting results (MRSA 16116; 16 MIC, 0 h): 3.900E+05 CFU/ml
- Counting results (MRSA 16116; 16 MIC, 2 h): 3.000E+02 CFU/ml
- Counting results (MRSA 16116; 16 MIC, 4 h): 1.000E+02 CFU/ml
- Counting results (MRSA 16116; 16 MIC, 6 h): 3.000E+02 CFU/ml
- Counting results (MRSA 16116; 16 MIC, 24 h): 1.000E+02 CFU/ml
- Time to obtain bactericidal effect at 4 MIC (MRSA 16116; 16116/5.10^5 CFU/ml, >=3 log10 decrease in CFU): 4 to 6 h
- Counting results (MRSA 16116; ¼ MIC, 0 h): 3.900E+05 CFU/ml
- Counting results (MRSA 16116; ¼ MIC, 2 h): 2.000E+06 CFU/ml
- Counting results (MRSA 16116; ¼ MIC, 4 h): 4.000E+07 CFU/ml
- Counting results (MRSA 16116; ¼ MIC, 6 h): 3.000E+08 CFU/ml
- Counting results (MRSA 16116; ¼ MIC, 24 h): 1.900E+09 CFU/ml
- Counting results (MRSA 16116; ½ MIC, 0 h): 3.900E+05 CFU/ml
- Counting results (MRSA 16116; ½ MIC, 2 h): 1.700E+06 CFU/ml
- Counting results (MRSA 16116; ½ MIC, 4 h): 3.000E+07 CFU/ml
- Counting results (MRSA 16116; ½ MIC, 6 h): 1.400E+08 CFU/ml
- Counting results (MRSA 16116; ½ MIC, 24 h): 2.600E+08 CFU/ml
- Counting results (MRSP 16127; 1 MIC, 0 h): 9.000E+05 CFU/ml
- Counting results (MRSP 16127; 1 MIC, 2 h): 4.100E+05 CFU/ml
- Counting results (MRSP 16127; 1 MIC, 4 h): 4.000E+06 CFU/ml
- Counting results (MRSP 16127; 1 MIC, 6 h): 7.500E+06 CFU/ml
- Counting results (MRSP 16127; 1 MIC, 24 h): 9.000E+07 CFU/ml
- Counting results (MRSP 16127; 2 MIC, 0 h): 9.000E+05 CFU/ml
- Counting results (MRSP 16127; 2 MIC, 2 h): 4.100E+05 CFU/ml
- Counting results (MRSP 16127; 2 MIC, 4 h): 5.400E+05 CFU/ml
- Counting results (MRSP 16127; 2 MIC, 6 h): 2.500E+06 CFU/ml
- Counting results (MRSP 16127; 2 MIC, 24 h): 7.600E+06 CFU/ml
- Counting results (MRSP 16127; 4 MIC, 0 h): 9.000E+05 CFU/ml
- Counting results (MRSP 16127; 4 MIC, 2 h): 1.700E+04 CFU/ml
- Counting results (MRSP 16127; 4 MIC, 4 h): 1.500E+03 CFU/ml
- Counting results (MRSP 16127; 4 MIC, 6 h): 3.000E+02 CFU/ml
- Counting results (MRSP 16127; 4 MIC, 24 h): 8.000E+02 CFU/ml
- Counting results (MRSP 16127; 8 MIC, 0 h): 9.000E+05 CFU/ml
- Counting results (MRSP 16127; 8 MIC, 2 h): 5.200E+03 CFU/ml
- Counting results (MRSP 16127; 8 MIC, 4 h): 1.000E+02 CFU/ml
- Counting results (MRSP 16127; 8 MIC, 6 h): 1.000E+02 CFU/ml
- Counting results (MRSP 16127; 8 MIC, 24 h): 1.000E+02 CFU/ml
- Counting results (MRSP 16127; 16 MIC, 0 h): 9.000E+05 CFU/ml
- Counting results (MRSP 16127; 16 MIC, 2 h): 1.200E+03 CFU/ml
- Counting results (MRSP 16127; 16 MIC, 4 h): 1.000E+02 CFU/ml
- Counting results (MRSP 16127; 16 MIC, 6 h): 1.000E+02 CFU/ml
- Counting results (MRSP 16127; 16 MIC, 24 h): 1.000E+02 CFU/ml
- Time to obtain bactericidal effect at 4 MIC (MRSP 16127; 16127/10^6 CFU/ml, >=3 log10 decrease in CFU): 4 to 6 h
- Counting results (MRSP 16127; ¼ MIC, 0 h): 9.000E+05 CFU/ml
- Counting results (MRSP 16127; ¼ MIC, 2 h): 5.100E+05 CFU/ml
- Counting results (MRSP 16127; ¼ MIC, 4 h): 4.200E+06 CFU/ml
- Counting results (MRSP 16127; ¼ MIC, 6 h): 3.000E+07 CFU/ml
- Counting results (MRSP 16127; ¼ MIC, 24 h): 4.900E+10 CFU/ml
- Counting results (MRSP 16127; ½ MIC, 0 h): 9.000E+05 CFU/ml
- Counting results (MRSP 16127; ½ MIC, 2 h): 4.300E+05 CFU/ml
- Counting results (MRSP 16127; ½ MIC, 4 h): 3.700E+06 CFU/ml
- Counting results (MRSP 16127; ½ MIC, 6 h): 2.100E+07 CFU/ml
- Counting results (MRSP 16127; ½ MIC, 24 h): 3.400E+09 CFU/ml
